This note sets out measurements from ChEMBL document CHEMBL2390884, “Design, synthesis and antiproliferative activity studies of novel 1,2,3-triazole-dithiocarbamate-urea hybrids” (Eur J Med Chem, 2013).

The structures appear in SMILES notation.

Format in all cases: functional, cell-based
Assay [1] is described as follows: Cytotoxicity against human EC9706 cells after 72 hrs by MTT assay. The following applies: EC9706, 72 h. On the technique in general: Tetrazolium assays rely on reduction of a dye to a coloured formazan, in cell work by metabolically active cells.
The test system of assay [2] is MCF7. The assay can be described thus: Cytotoxicity against human MCF7 cells after 72 hrs by MTT assay. The following applies: MCF7, 72 h.
Assay [3] concerns SMMC-7721. Put plainly: Cytotoxicity against human SMMC7721 cells after 72 hrs by MTT assay. The following applies: SMMC-7721, 72 h.
The subject of assay [4] is MGC-803. Put plainly: Cytotoxicity against human MGC803 cells after 72 hrs by MTT assay. The note with it: MGC-803, 72 h.

Consider `Cc1ccc(Cn2cc(CSC(=S)N3CCN(C(=O)NC(C)C)CC3)nn2)cc1`, for which the IC50 is over 128 µM in assay [1], 4.63 µM in assay [2], over 128 µM in assay [3] and 16.6 µM in assay [4].

On to `CCN(C)C(=O)N1CCN(C(=S)SCc2cn(Cc3ccc(F)cc3)nn2)CC1`, for which the IC50 in assay [1] is 14.3 µM; in assay [2], 2.15 µM; in assay [3] it was 23.7 µM; in assay [4], 1.55 µM.

As for `O=C(NC1CCCCC1)N1CCN(C(=S)SCc2cn(Cc3ccccc3F)nn2)CC1`, the IC50 in assay [1] was 84.9 µM; in assay [2], 85 µM; in assay [3], over 128 µM; in assay [4], 36.5 µM.

`CCNC(=O)N1CCN(C(=S)SCc2cn(Cc3cc(OC)c(OC)c(OC)c3)nn2)CC1`: the IC50 is over 128 µM in assay [1], over 128 µM in assay [2], over 128 µM in assay [3] and 101 µM in assay [4].

On to `CCNC(=O)N1CCN(C(=S)SCc2cn(Cc3ccc(OC)cc3)nn2)CC1`, for which the 50% inhibitory concentration (IC50) is over 128 µM in assay [1], 97.6 µM in assay [2], over 128 µM in assay [3] and over 128 µM in assay [4].

As for `COc1ccc(Cn2cc(CSC(=S)N3CCN(C(N)=O)CC3)nn2)cc1`, the IC50 in assay [1], in assay [2], in assay [3] and in assay [4] was over 128 µM throughout.

Regarding `NC(=O)N1CCN(C(=S)SCc2cn(Cc3ccc(F)cc3)nn2)CC1`, the IC50 in assay [1] is 62.7 µM; in assay [2] it was 22.1 µM; in assay [3] it was over 128 µM; in assay [4], 9.33 µM.

Regarding `NC(=O)N1CCN(C(=S)SCc2cn(Cc3ccccc3F)nn2)CC1`, the IC50 was 43.1 µM in assay [1], over 128 µM in assay [2], over 128 µM in assay [3] and 11.3 µM in assay [4].

In the case of `O=c1[nH]cc(F)c(=O)[nH]1` [FLUOROURACIL], the IC50 in assay [1] amounted to 0.32 µM; in assay [2], 7.33 µM; in assay [3], 26.7 µM; in assay [4] it was 7.14 µM.

For the compound `CCN(C)C(=O)N1CCN(C(=S)SCc2cn(Cc3cc(OC)c(OC)c(OC)c3)nn2)CC1`, the IC50 is over 128 µM in assay [1], 68.5 µM in assay [2], over 128 µM in assay [3] and 85.7 µM in assay [4].

Take `CC(C)(C)NC(=O)N1CCN(C(=S)SCc2cn(Cc3ccccc3F)nn2)CC1`: the IC50 is 87.8 µM in assay [1], 18.8 µM in assay [2], over 128 µM in assay [3] and 40.7 µM in assay [4].

For the compound `O=C(NCc1ccccc1)N1CCN(C(=S)SCc2cn(Cc3ccccc3F)nn2)CC1`, the IC50 is 38.1 µM in assay [1], 38.1 µM in assay [2], over 128 µM in assay [3] and 13.3 µM in assay [4].

For `CCN(C)C(=O)N1CCN(C(=S)SCc2cn(Cc3ccc(Cl)cc3)nn2)CC1`, the IC50 in assay [1] worked out at 17.7 µM; in assay [2] it was 14.7 µM; in assay [3], 38.2 µM; in assay [4] it was 4.32 µM.

As for `COc1cc(Cn2cc(CSC(=S)N3CCN(C(N)=O)CC3)nn2)cc(OC)c1OC`, the IC50 in assay [1], in assay [2], in assay [3] and in assay [4] was over 128 µM each time.

As to `CCN(C)C(=O)N1CCN(C(=S)SCc2cn(Cc3ccccc3F)nn2)CC1`, the IC50 in assay [1] is 15.6 µM; in assay [2] it was 7.21 µM; in assay [3] it was 19.7 µM; in assay [4] it was 5.86 µM.

As for `O=C(NC1CCCCC1)N1CCN(C(=S)SCc2cn(Cc3ccc(F)cc3)nn2)CC1`, the IC50 in assay [1], in assay [2], in assay [3] and in assay [4] was over 128 µM throughout.

On to `CCNC(=O)N1CCN(C(=S)SCc2cn(Cc3ccc(Cl)cc3)nn2)CC1`, for which the IC50 was over 128 µM in assay [1], over 128 µM in assay [2], over 128 µM in assay [3] and 35.4 µM in assay [4].

`NC(=O)N1CCN(C(=S)SCc2cn(Cc3ccc(Cl)cc3)nn2)CC1`: the IC50 in assay [1], in assay [2], in assay [3] and in assay [4] was over 128 µM in each case.

What is called IC50 is the concentration that gives 50% inhibition. High values mean lower potency, low ones higher potency.
